Measured values as given in ChEMBL document CHEMBL1811878, “Heteroatom-substituted analogues of orphan nuclear receptor small heterodimer partner ligand and apoptosis inducer (E)-4-[3-(1-Adamantyl)-4-hydroxyphenyl]-3-chlorocinnamic acid” (J Med Chem, 2011).

Columns and labels:
[1] = target: T1, Retinoic acid receptor gamma (Homo sapiens) (UniProt P13631); experiment: Transcriptional activation of human RARgamma at 1 uM by (TREpal)2-tk-CAT reporter gene assay
T1 sequence (whole entry): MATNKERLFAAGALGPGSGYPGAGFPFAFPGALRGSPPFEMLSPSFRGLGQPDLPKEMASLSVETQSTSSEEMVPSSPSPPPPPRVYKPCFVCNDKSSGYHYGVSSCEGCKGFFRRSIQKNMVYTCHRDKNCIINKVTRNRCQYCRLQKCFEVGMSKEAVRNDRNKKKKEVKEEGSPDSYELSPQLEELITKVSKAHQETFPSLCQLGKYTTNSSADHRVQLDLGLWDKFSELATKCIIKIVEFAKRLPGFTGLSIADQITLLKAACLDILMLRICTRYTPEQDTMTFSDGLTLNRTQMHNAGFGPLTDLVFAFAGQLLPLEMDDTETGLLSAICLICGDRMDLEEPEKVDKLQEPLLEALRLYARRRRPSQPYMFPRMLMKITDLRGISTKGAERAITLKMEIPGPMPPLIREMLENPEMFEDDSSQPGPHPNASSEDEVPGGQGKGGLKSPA

[2] = Induction of apoptosis in retinoid-resistant p53 null human HL60R cells assessed as DNA fragmentation at 1 uM after 24 hrs by acridine orange staining method; format: functional
[3] = target: T2, Retinoic acid receptor alpha (Homo sapiens) (UniProt P10276); experiment: Transcriptional activation of human RARalpha at 0.1 uM by luciferase reporter gene assay relative to control
T2 sequence (whole entry): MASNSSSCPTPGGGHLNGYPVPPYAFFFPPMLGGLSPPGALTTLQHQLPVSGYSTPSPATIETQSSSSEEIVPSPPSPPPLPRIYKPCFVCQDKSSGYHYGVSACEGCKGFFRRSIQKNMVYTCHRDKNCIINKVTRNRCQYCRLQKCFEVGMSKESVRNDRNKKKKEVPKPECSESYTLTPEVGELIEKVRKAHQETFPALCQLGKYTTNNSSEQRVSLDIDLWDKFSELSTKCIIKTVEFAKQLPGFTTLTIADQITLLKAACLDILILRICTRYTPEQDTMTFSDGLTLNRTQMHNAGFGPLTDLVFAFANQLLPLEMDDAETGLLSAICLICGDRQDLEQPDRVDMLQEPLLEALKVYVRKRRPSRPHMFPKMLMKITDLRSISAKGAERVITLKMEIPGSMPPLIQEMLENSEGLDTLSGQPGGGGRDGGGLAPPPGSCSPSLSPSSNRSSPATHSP

[4] = target: T1, Retinoic acid receptor gamma (Homo sapiens); experiment: Transcriptional activation of human RARgamma at 0.1 uM by luciferase reporter gene assay relative to control
OVCAR-3 = experiment: Antiproliferative activity against human OVCAR3 cell; format: functional, cell-based
[5] = target: T3, Retinoic acid receptor beta (Homo sapiens) (UniProt P10826); experiment: Transcriptional activation of human RARbeta at 1 uM by (TREpal)2-tk-CAT reporter gene assay
T3 sequence (whole entry): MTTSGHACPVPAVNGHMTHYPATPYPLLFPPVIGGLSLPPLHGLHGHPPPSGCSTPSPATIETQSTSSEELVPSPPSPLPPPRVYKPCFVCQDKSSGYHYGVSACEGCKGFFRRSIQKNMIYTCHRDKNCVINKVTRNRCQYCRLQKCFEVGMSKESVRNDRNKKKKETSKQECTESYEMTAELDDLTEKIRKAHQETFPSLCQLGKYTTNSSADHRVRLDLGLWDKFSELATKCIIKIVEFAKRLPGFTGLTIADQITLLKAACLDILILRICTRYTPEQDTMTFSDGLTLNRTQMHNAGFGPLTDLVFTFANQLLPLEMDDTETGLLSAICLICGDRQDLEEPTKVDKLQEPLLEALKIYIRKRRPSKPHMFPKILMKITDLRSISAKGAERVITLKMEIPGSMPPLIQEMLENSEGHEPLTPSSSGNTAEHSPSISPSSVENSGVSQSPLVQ

[6] = Induction of apoptosis in retinoid-resistant p53 null human HL60R cells assessed as DNA fragmentation at 0.1 uM after 24 hrs by acridine orange staining method; format: functional
[7] = target: T3, Retinoic acid receptor beta (Homo sapiens); experiment: Transcriptional activation of human RARbeta at 0.1 uM by luciferase reporter gene assay relative to control
[8] = target: T2, Retinoic acid receptor alpha (Homo sapiens); experiment: Transcriptional activation of human RARalpha at 1 uM by (TREpal)2-tk-CAT reporter gene assay

| Structure (SMILES) | Activity [1] | Activity [2] | fold change (FC) [3] | fold change (FC) [4] | IC50 (OVCAR-3) | Activity [5] | Activity [6] | fold change (FC) [7] | Activity [8] |
| --- | --- | --- | --- | --- | --- | --- | --- | --- | --- |
| O=C(O)c1ccc2cc(-c3ccc(O)c(C45CC6CC(CC(C6)C4)C5)c3)ccc2c1 [O-DEMETHYLATED ADAPALENE] | 88% | 98% | 10 | 50 | 130 nM | 78% | 73% | 20 | 21% |
| O=C(O)/C=C/c1ccc(-c2ccc(O)c(C34CC5CC(CC(C5)C3)C4)c2)cc1 [ADAROTENE] | 103% | 98% | 6 | 25 |  | 85% | 90% | 6 | 8% |
